This is an account of results in US8293705B2, “HCV protease inhibitors and uses thereof” (Avila Therapeutics, Inc., priority 2007, dated 2012).

Each structure is given as a SMILES string. Several values for one entry are separate records, joined by “and”; a condition that tells them apart may be missing. Equal entries are not always repeated.

Assay [1] has as its system HCV RNA replicon in cell line ET (luc-ubi-neo/ET), human Huh7 hepatoma. Briefly: HCV RNA replicon assay, Example 14 Method A. It counts as cell-based. The conditions noted are these: Hepatitis C virus, Huh-7, assay of Example 14, 72 hr; for IC50: read-out: Inhibition, Replicon (IC50); for IC90: read-out: Inhibition, Replicon, IC90 value. As to the method: The compounds were assayed to evaluate the antiviral activity and cytotoxicity of compounds in vitro using HCV RNA replicons. This assay used the cell line ET (luc-ubi-neo/ET), which is a human Huh7 hepatoma cell line that contains an HCV RNA replicon with a stable luciferase (Luc) reporter and three cell culture-adaptive mutations. […]
The ET cell line was grown in Dulbecco's modified essential media (DMEM), 10% fetal bovine serum (FBS), 1% penicillin-streptomycin (pen-strep), 1% glutamine, 250 μg/mL G418 in a 5% CO2 incubator at 37° C. All cell culture reagents were obtained from Mediatech (Manassas, Va.). Cells were trypsinized (1% trypsin:EDTA) and plated out at 5×10^3 cells/well in white 96-well assay plates (Costar) dedicated to cell number (cytotoxicity) or antiviral activity assessments. Drugs were added at six 3-fold concentrations each and the assay was run in DMEM, 5% FBS, 1% pen-strep, 1% glutamine. Human interferon alpha-2b (PBL Biolabs, New Brunswick, N.J.) was included in each run as a positive control compound. Cells were processed 72 hr post drug addition when the cells are still subconfluent. Antiviral activity was measured by analyzing replicon-derived luciferase activity using the Steady-Glo Luciferase Assay System (Promega, Madison, Wis.) according to manufacturer's instruction. The number of cells in each well was determined by CytoTox-1 reagent (Promega). Compound profile was derived by calculating applicable EC50 (effective concentration inhibiting virus replication by 50%), EC90 (effective concentration inhibiting virus replication by 90%), IC50 (concentration decreasing cell viability by 50%) and SI50 (selective index: […]) values.

Another assay addresses T1, HCV NS3/4A wild type (Hepatitis C virus genotype 1b, UniProt Q9WMX2).
T1 construct: HCV NS3/4A wild type (wt) was incubated for 1 hr at a 10× fold access of test compound to protein; purchased Bioenza, Calif
Briefly: Mass spectrometric analysis of covalent modification (MALDI-TOF). It counts as binding. The conditions noted are these: 10× excess of test compound to protein; MALDI-TOF. As for the experimental part:
Mass spectrometric analysis of HCV wild type or HCV variant C159S in the presence of test compound is performed. 100 pmols of HCV wild type (Bioenza, Calif.) is incubated with test compound for 1 hr and 3 hrs at 10-fold access of test compound to protein. 1 ul aliquots of the samples (total volume of 4.24 ul) are diluted with 10 ul of 0.1% TFA prior to micro C4 ZipTipping directly onto the MALDI target using Sinapinic acid as the desorption matrix (10 mg/mL in 0.1% TFA:Acetonitrile 50:50). Analyses are performed on a Shimadzu Biotech Axima TOF2 (Shimadzu Instruments) matrix-assisted-laser desorption/ionization Time-of-Flight (MALDI-TOF) mass spectrometer. The same procedure is carried out on 100 pmols of HCV C159S mutant of HCV protease for 3 hrs at 10-fold excess of test compound to protein.
As depicted in FIGS. 1 and 2, mass spectrometric analysis of HCV wild type in the presence of test compounds I-1 and I-25 was performed using the following protocol: HCV NS3/4A wild type (wt) was incubated for 1 hr at a 10× fold access of test compound to protein. 2 ul aliquots of the samples were diluted with 10 ul of 0.1% TFA prior to micro C4 ZipTipping directly onto the MALDI target using Sinapinic acid as the desorption matrix (10 mg/ml in 0.1% TFA:Acetonitrile 50:50). For intact protein mass measurement the instrument was set in linear mode using a pulsed extraction setting of 24,500 and apomyoglobin as the standard to calibrate the instrument.

Assay [2] concerns the target T2, HCV NS3/4A 1b protease A156T (Hepatitis C virus genotype 1b, UniProt Q9WMX2, A1182T).
T2 construct: 10× stocks of NS3/4A protease enzyme from Bioenza (Mountain View, Calif.); purchased Bioenza (Mountain View, Calif.)
Briefly: HCV protease FRET assay (IC50_APP), Example 16. Format: biochemical.

In assay [3] the target is T3, HCV NS3/4A 1b protease D168A (Hepatitis C virus genotype 1b, UniProt Q9WMX2, D1194A).
T3 construct: 10× stocks of NS3/4A protease enzyme from Bioenza (Mountain View, Calif.); purchased Bioenza (Mountain View, Calif.)
Briefly: HCV protease FRET assay (IC50_APP), Example 16. Format: biochemical.

The target of assay [4] is T4, HCV NS3/4A 1b protease wild type (Hepatitis C virus genotype 1b, UniProt Q9WMX2).
T4 construct: 10× stocks of NS3/4A protease enzyme from Bioenza (Mountain View, Calif.); purchased Bioenza (Mountain View, Calif.)
Briefly: HCV protease FRET assay (IC50_APP), Example 16. It counts as biochemical.

The target of assay [5] is T2, HCV NS3/4A 1b protease A156T. Briefly: HCV protease FRET assay (IC50), Example 15. Format: biochemical. The conditions noted are these: Inhibition (IC50), HCV A156T, FRET, 30 min pre-incubation at 25° C. As to the method: (§1) The following protocol was used to generate IC50 values as depicted for compound 239 in Table 4, above. The protocol is a modified FRET-based assay (v—02) from In Vitro Resistance Studies of HCV Serine Protease Inhibitors, 2004, JBC, vol. 279, No. 17, pp 17508-17514.
(§2) 10× stocks of NS3/4A protease enzyme from Bioenza (Mountain View, Calif.) and 1.13× 5-FAM/QXL™520 FRET peptide substrate from Anaspec (San Jose, Calif.) were prepared in 50 mM HEPES, pH 7.8, 100 mM NaCl, 5 mM DTT and 20% glycerol. 5 μL of each enzyme were pre-incubated in a Corning (#3573) 384-well, black, non-treated microtiter plate (Corning, N.Y.) for 30 min at 25° C. with a 0.5 μL volume of 50% DMSO and serially diluted compounds prepared in 50% DMSO. Protease reactions were started with the addition of 45 μL of the FRET substrate and monitored for 120 minutes at λex487/λem514 through Quad^4 monochromoters in a Synergy^4 plate reader from BioTek (Winooski, Vt.). At the conclusion of each assay, progress curves from each well were examined for linear reaction kinetics and fit statistics (R^2, absolute sum of squares). Initial velocity (0 minutes to 30+ minutes) from each reaction was determined from the slope of a plot of relative fluorescence units vs time (minutes) and then plotted against inhibitor concentration to estimate IC50 from log [Inhibitor] vs Response, Variable Slope model in GraphPad Prism from GraphPad Software (San Diego, Calif.).
(§3) The compound numbers correspond to the compound numbers in Table 3. […] ;

The target in assay [6] is T3, HCV NS3/4A 1b protease D168A. Briefly: HCV protease FRET assay (IC50), Example 15. It counts as biochemical. The conditions noted are these: Inhibition (IC50), HCV D168A, FRET, 30 min pre-incubation at 25° C. As to the method: as §1, §2, §3
Assay [7] addresses T4, HCV NS3/4A 1b protease wild type. Put plainly: HCV protease FRET assay (IC50), Example 15. It counts as biochemical. As to the method:
as §1, §2, §3

The next assay addresses HCV NS3/4A D168A (Hepatitis C virus genotype 1b, UniProt Q9WMX2, D1194A). Briefly: Mass spectrometric analysis of covalent modification. Format: binding. As to conditions: methods described in Example 18. As for the experimental part:
HCV is incubated with test compound for 3 hrs prior to tryptic digestion. Todoacetamide is used as the alkylating agent after compound incubation. For tryptic digests a 2 ul aliquot (0.06 ug/ul) is diluted with 10 ul of 0.1% TFA prior to micro C18 Zip Tipping directly onto the MALDI target using alpha cyano-4-hydroxy cinnamic acid as the matrix (5 mg/mL in 0.1% TFA:Acetonitrile 50:50).
For tryptic digests the instrument is set in Reflectron mode with a pulsed extraction setting of 1800. Calibration is done using the Laser Biolabs Pep Mix standard (1046.54, 1296.69, 1672.92, 2093.09, 2465.20). For CID/PSD analysis the peptide is selected using cursors to set ion gate timing and fragmentation occurred at a laser power about 20% higher and He is used as the collision gas for CID. Calibration for fragments is done using the P14R fragmentation calibration for the Curved field Reflectron.
As depicted in FIGS. 4, 5, 6, and 7, mass spectrometric analysis of HCV mutants in the presence of compound I-11 was performed. […] 2 ul aliquots of the samples were diluted with 10 ul of 0.1% TFA prior to micro C4 ZipTipping directly onto the MALDI target using Sinapinic acid as the desorption matrix (10 mg/ml in 0.1% TFA:Acetonitrile 50:50). […]

Assay [8] deals with T5, NS3 protease self-cleavage in Huh-7-Luc-Neo-ET replicon cells (Hepatitis C virus genotype 1b, UniProt Q9WMX2, E1202G/T1280I).
T5 construct: blotted with polyclonal anti NS3 antibody (Bioenza, Calif.)
Put plainly: Inhibition of protease self cleavage in replicon cells (washout). It counts as cell-based. As to conditions: 16 hours incubation, then removed. As to the method: Huh-7-Luc-Neo-ET cells were plated in Replicon Assay Medium (RPMI supplemented with 5% FBS, 1× non-essential amino acids and pen/strep) at a density of 1×10^5 cells/well in 12 well plates. Eight hours later the media was removed and replaced with 1 ml media containing test compound (5 wells per compound) and 0.02% DMSO and the cells were returned to the incubator overnight. Sixteen hours later 1 well from each compound and 1 untreated well were washed with PBS, then lysed and scraped into 30 ul of Cell Extraction Buffer (Biosource, Camarillo, Calif.) plus Complete Protease Inhibitor (Roche, Indianapolis, Ind.). The remaining wells were rinsed 2× with PBS then fed with Replicon Media and returned to the incubator. […]
Cell lysates were separated by SDS-Page (4-20%) and transferred to Immobilon-P PVDF membrane (Millipore Corporation, MA) and blotted with polyclonal anti NS3 antibody (Bioenza, Calif.). Blots were scanned on an Odyssey infrared scanner from Licor and the FL band and cleavage products were quantified separately using the Licor software provided with the scanner. The cleavage product was calculated as a percentage of the total NS3 in each sample and then normalized to the DMSO control so that the DMSO control reflects 100% activity.

For the molecule `C=CC(=O)NCC(=O)N1C[C@H](OC(=O)N2Cc3cccc(F)c3C2)C[C@H]1C(=O)N[C@]1(C(=O)NS(=O)(=O)C2CC2)C[C@H]1C=C` [Compound I-6, (3R,5S)-1-(2-acrylamidoacetyl)-5-((1R,2S)-1-(cyclopropylsulfonylcarbamoyl)-2-vinylcyclopropylcarbamoyl)pyrrolidin-3-yl 4-fluoroisoindoline-2-carboxylate], the half-inhibitory concentration (IC50) in assay [1] was 100 to 1000 nM; in [2], less than 10 nM; in assay [3], 100 to 1000 nM; in [4], less than 10 nM; in [5], less than 10 nM; in assay [6], 10 to 100 nM. Further, the half-inhibitory concentration (IC50) in assay [7] is less than 10 nM. For the same molecule, the 90% effect concentration (IC90) in assay [1] lay within 1000 to 10000 nM. Moreover, the “Covalent modification of HCV NS3/4A wild type” value on HCV NS3/4A wild type is listed as “measurable covalent modification”.

`C=C[C@@H]1C[C@]1(NC(=O)[C@@H]1C[C@@H](OC(=O)N2Cc3cccc(F)c3C2)CN1C(=O)CNC(=O)/C=C/C)C(=O)NS(=O)(=O)C1CC1` [Compound I-7, (3R,5S)-1-(2-(E)-but-2-enamidoacetyl)-5-((1R,2S)-1-(cyclopropylsulfonylcarbamoyl)-2-vinylcyclopropylcarbamoyl)pyrrolidin-3-yl-4-fluoroisoindoline-2-carboxylate]: the IC50 in assay [2] is 100 to 1000 nM; in assay [3] it was 1000 to 10000 nM; in assay [4], 100 to 1000 nM; in [6] it was 1000 to 10000 nM; in assay [7], 10 to 100 nM.

Consider `C=CC(=O)NC[C@H](NC(=O)OC1CCCC1)C(=O)N1C[C@H](OC(=O)N2Cc3cccc(F)c3C2)C[C@H]1C(=O)N[C@]1(C(=O)NS(=O)(=O)C2CC2)C[C@H]1C=C` [Compound I-19, (3R,5S)-1-((S)-3-acrylamido-2-(cyclopentyloxycarbonylamino)propanoyl)-5-((1R,2S)-1-(cyclopropylsulfonylcarbamoyl)-2-vinylcyclopropylcarbamoyl)pyrrolidin-3-yl 4-fluoroisoindoline-2-carboxylate], for which the “Covalent modification of HCV NS3/4A wild type” value at HCV NS3/4A wild type is “measurable covalent modification”. Further, the “Covalent modification of HCV NS3/4A D168A” value on HCV NS3/4A D168A was “measurable covalent modification”. The values for the half-inhibitory concentration (IC50) in assay [2], in [3] and in assay [4] were less than 10 nM, 10 to 100 nM and less than 10 nM, respectively.

Turning to `C=CC(=O)O[C@H](C)[C@H](NC(=O)OC(C)(C)C)C(=O)N1C[C@H](OC(=O)N2Cc3cccc(F)c3C2)C[C@H]1C(=O)N[C@]1(C(=O)NS(=O)(=O)C2CC2)C[C@H]1C=C` [Compound I-24, (3R,5S)-1-((2S,3R)-3-(acryloyloxy)-2-(tert-butoxycarbonylamino)butanoyl)-5-((1R,2S)-1-(cyclopropylsulfonylcarbamoyl)-2-vinylcyclopropylcarbamoyl)pyrrolidin-3-yl 4-fluoroisoindoline-2-carboxylate], the IC50 is 10 to 100 nM in [1], less than 10 nM in assay [2], less than 10 nM in assay [3] and less than 10 nM in [4]. Further, the concentration for an effect of 90% (IC90) in [1] was 100 to 1000 nM. Also, the “Covalent modification of HCV NS3/4A wild type” value on HCV NS3/4A wild type is reported as “measurable covalent modification”. Further, the “Covalent modification of HCV NS3/4A D168A” value at HCV NS3/4A D168A is “measurable covalent modification”.

For `CCC[C@H](NC(=O)[C@@H]1[C@H]2CCC[C@H]2CN1C(=O)[C@@H](NC(=O)[C@@H](NC(=O)c1cnccn1)C1CCCCC1)C(C)(C)C)C(=O)C(=O)NC1CC1` [VX-950], the “Time to virtually complete return of NS3 self-cleaving activity after drug removal” value in [8] is 4 h and 8 h.
